Test results from ChEMBL document CHEMBL1125693, “Synthesis and biological activity of new halo-steroidal antiestrogens” (J Med Chem, 1991).

Assays:
[1] = target: T1, Estrogen receptor (Mus musculus) (UniProt O08537+P19785); assay: Inhibition of estradiol-induced uterine weight gain in ovariectomized BALB/c mice at 3 ug dose twice daily; type: functional
[2] = target: T1, Estrogen receptor (Mus musculus); assay: Inhibition of estradiol-induced uterine weight gain in ovariectomized BALB/c mice at 20 ug dose twice daily; type: functional

T1 sequence (O08537 whole entry, looked up): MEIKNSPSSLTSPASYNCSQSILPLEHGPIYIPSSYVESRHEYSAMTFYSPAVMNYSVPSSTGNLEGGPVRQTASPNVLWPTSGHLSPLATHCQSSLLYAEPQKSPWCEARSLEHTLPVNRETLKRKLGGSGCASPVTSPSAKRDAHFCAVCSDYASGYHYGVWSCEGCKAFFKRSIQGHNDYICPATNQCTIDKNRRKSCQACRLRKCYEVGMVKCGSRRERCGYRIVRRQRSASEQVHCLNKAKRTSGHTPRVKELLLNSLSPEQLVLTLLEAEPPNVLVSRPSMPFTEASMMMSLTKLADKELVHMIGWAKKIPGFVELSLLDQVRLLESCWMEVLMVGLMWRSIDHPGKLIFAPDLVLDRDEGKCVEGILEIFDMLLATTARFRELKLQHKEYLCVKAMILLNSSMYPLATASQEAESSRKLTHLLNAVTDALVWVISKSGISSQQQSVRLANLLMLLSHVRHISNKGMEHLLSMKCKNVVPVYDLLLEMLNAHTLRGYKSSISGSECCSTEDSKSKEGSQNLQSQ
T1 sequence (P19785 whole entry, looked up): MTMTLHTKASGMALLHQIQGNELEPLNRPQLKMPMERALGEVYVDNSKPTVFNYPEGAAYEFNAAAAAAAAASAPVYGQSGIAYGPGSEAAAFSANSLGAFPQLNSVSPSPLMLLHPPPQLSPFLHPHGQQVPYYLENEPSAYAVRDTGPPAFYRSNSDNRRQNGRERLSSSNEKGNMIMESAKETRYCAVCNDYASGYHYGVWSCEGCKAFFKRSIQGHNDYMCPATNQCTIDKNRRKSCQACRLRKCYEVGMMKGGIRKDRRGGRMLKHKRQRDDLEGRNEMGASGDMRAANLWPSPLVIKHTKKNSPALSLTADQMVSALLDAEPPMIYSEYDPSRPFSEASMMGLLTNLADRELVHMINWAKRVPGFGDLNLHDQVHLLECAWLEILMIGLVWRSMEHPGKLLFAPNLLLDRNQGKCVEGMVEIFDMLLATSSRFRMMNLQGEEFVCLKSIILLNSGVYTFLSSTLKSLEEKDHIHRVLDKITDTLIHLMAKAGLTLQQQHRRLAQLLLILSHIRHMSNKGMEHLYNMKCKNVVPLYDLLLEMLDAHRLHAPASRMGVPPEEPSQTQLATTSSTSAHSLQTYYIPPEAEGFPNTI

| SMILES | inhibition [1] | inhibition [2] |
| --- | --- | --- |
| CCCCN(C)C(=O)CCCCCCCCCC[C@@H]1Cc2cc(O)ccc2[C@H]2CC[C@]3(C)[C@H](O)[C@H](Cl)C[C@H]3[C@H]12 | 35% |  |
| CCCCN(C)C(=O)CCCCCCCCCC[C@@H]1Cc2cc(O)ccc2[C@H]2CC[C@]3(C)[C@@H](O)CC[C@H]3[C@H]12 | 40% |  |
| CCCCN(C)C(=O)CCCCCCCCCC[C@@H]1Cc2cc(O)ccc2[C@H]2CC[C@]3(C)[C@@H](O)[C@H](I)C[C@H]3[C@H]12 | 63% |  |

The remaining lines, values ahead:

| inhibition [1] | inhibition [2] | SMILES |
| --- | --- | --- |
| 60% | 78% | CCCCN(C)C(=O)CCCCCCCCCC[C@@H]1Cc2cc(O)ccc2[C@H]2CC[C@]3(C)[C@H](O)[C@H](Br)C[C@H]3[C@H]12 |
| 52% | 79% | CCCCN(C)C(=O)CCCCCCCCCC[C@@H]1Cc2cc(O)ccc2[C@H]2CC[C@]3(C)[C@@H](O)[C@H](Br)C[C@H]3[C@H]12 |
| 74% |  | CCCCN(C)C(=O)CCCCCCCCCC[C@@H]1Cc2cc(O)ccc2[C@H]2CC[C@]3(C)[C@@H](O)[C@H](Cl)C[C@H]3[C@H]12 |
